Laboratory results published in ChEMBL document CHEMBL1154784, “Discovery of potential ZAP-70 kinase inhibitors: pharmacophore design, database screening and docking studies” (Eur J Med Chem, 2009).

Target: T1, Tyrosine-protein kinase ZAP-70 (Homo sapiens, UniProt P43403)
T1 sequence (P43403 whole entry): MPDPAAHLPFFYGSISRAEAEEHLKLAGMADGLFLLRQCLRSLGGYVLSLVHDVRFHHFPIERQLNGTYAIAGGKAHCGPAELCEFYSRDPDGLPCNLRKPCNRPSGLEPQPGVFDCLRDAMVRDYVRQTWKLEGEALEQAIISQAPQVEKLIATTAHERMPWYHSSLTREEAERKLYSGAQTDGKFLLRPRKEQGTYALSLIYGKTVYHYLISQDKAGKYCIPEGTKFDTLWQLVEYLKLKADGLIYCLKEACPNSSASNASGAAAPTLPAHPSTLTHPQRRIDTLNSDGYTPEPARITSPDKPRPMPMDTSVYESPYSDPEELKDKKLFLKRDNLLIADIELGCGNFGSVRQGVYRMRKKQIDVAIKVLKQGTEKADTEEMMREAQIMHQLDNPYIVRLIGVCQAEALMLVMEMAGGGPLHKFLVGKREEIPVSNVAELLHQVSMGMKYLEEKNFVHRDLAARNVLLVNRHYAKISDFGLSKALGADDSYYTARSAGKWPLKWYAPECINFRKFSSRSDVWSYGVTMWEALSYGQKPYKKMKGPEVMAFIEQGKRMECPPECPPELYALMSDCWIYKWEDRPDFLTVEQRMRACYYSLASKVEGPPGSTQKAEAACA
Experiment: Inhibition of human GST-fused ZAP-70 expressed in Sf9 cells

Row | IC50 | Compound
1 | 25 µM | Cc1c(CCC(=O)O)c[nH]c1/C=C1\C(=O)Nc2ccccc21
2 | 28.4 µM | Cc1[nH]c(/C=C2\C(=O)Nc3ccccc32)c(C)c1CCC(=O)O [ORANTINIB]
